Test results from US9833497B2, “Human originated EGF domain proteins and use of the same” (CHENGDU SOURCEBIO LIMITED-LIABILITY COMPANY, priority 2013, dated 2017).

What was measured:
Format in all cases: cell-based
Proteus mirabilis = experiment: MIC against Gram-negative bacteria: Proteus mirabilis; conditions: for MIC P. mirabilis: two-fold serial dilution; for MIC: P. mirabilis
In short: (§1)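 Inocula prepared by growing LB cultures at 37° C to 0.5 McFarland, centrifuging at 4000×g, and resuspending in fresh medium. Final density 5×10^5 CFU/mL per well with two-fold dilutions of purified EGF domain protein; shaking incubation at 37° C.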

Pseudomonas aeruginosa = experiment: MIC against Gram-negative bacteria: Pseudomonas aeruginosa; conditions: for MIC P. aeruginosa: two-fold serial dilution; for MIC: P. aeruginosa
In short: as §1

Klebsiella pneumonia = experiment: MIC against Gram-negative bacteria: Klebsiella pneumonia; conditions: for MIC K. pneumonia: two-fold serial dilution; for MIC: K. pneumonia
In short: as §1

Proteus vulgaris = experiment: MIC against Gram-negative bacteria: Proteus vulgaris; conditions: for MIC P. vulgaris: two-fold serial dilution; for MIC: P. vulgaris
In short: as §1

Citrobacter diversus = experiment: MIC against Gram-negative bacteria: Citrobacter diversus; conditions: for MIC C. diversus: two-fold serial dilution; for MIC: C. diversus
In short: as §1

Moraxella catarrhalis = experiment: MIC against Gram-negative bacteria: Moraxella catarrhalis; conditions: for MIC M. catarrhalis: two-fold serial dilution; for MIC: M. catarrhalis
In short: as §1

Enterobacter cloacae = experiment: MIC against Gram-negative bacteria: Enterobacter cloacae; conditions: for MIC E. cloacae: two-fold serial dilution; for MIC: E. cloacae
In short: as §1

E. coli DH5α = experiment: Antibacterial activity: MIC and growth curve against E. coli DH5α in 96-well plate; conditions: minimal inhibitory concentration against E. coli DH5α; 96-well plate, 5×10^5 CFU/mL, 37° C., judged after 8 h
In short: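 Log-phase bacteria (OD600 ~0.5) resuspended in LB at 5×10^5 CFU/mL, exposed to recombinant protein at 50, 25, 12.5 μg/mL final in triplicate, 37 °C shaking at 175 rpm. OD600 read every 30 min; MIC is lowest concentration showing no growth.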

Serratia marcescens = experiment: MIC against Gram-negative bacteria: Serratia marcescens; conditions: for MIC S. marcescens: two-fold serial dilution; for MIC: S. marcescens
In short: as §1

Aeromonas hydrophila = experiment: MIC against Gram-negative bacteria: Aeromonas hydrophila; conditions: for MIC A. hydrophila: two-fold serial dilution; for MIC: A. hydrophila
In short: as §1

E. coli BL21 = experiment: MIC against Gram-negative bacteria: E. coli BL21; conditions: for MIC E. coli BL21: two-fold serial dilution
In short: as §1

[1] = 10 h cultivation at 37° C., 5×10^5 CFU/mL

## PRT1146 (SIDNCAEPELNSVICLNGGICVDGPGHTFDCRCLPGFSGQFCE; listed as Homo sapiens)
Proteus mirabilis; [1]
  MIC P. mirabilis: 12.5 µg/mL
Pseudomonas aeruginosa; [1]
  MIC P. aeruginosa: 12.5 µg/mL
Klebsiella pneumonia; [1]
  MIC K. pneumonia: 25 µg/mL
Proteus vulgaris; [1]
  MIC P. vulgaris: 50 µg/mL
Citrobacter diversus; [1]
  MIC C. diversus: 25 µg/mL
Moraxella catarrhalis; [1]
  MIC M. catarrhalis: 50 µg/mL
Enterobacter cloacae; [1]
  MIC E. cloacae: 50 µg/mL
E. coli DH5α
  MIC: 50 µg/mL
Serratia marcescens; [1]
  MIC S. marcescens: 12.5 µg/mL
Aeromonas hydrophila; [1]
  MIC A. hydrophila: 12.5 µg/mL
E. coli BL21; [1]
  MIC E. coli BL21: 25 µg/mL

## PRT899 (NINECASNPCLNQGTCIDDVAGYKCNCLLPYTGATCE; listed as Homo sapiens)
Proteus mirabilis; 10 h cultivation at 37° C.
  MIC: 50 µg/mL
Pseudomonas aeruginosa; 10 h cultivation at 37° C.
  MIC: 12.5 µg/mL
Klebsiella pneumonia; 10 h cultivation at 37° C.
  MIC: 12.5 µg/mL
Proteus vulgaris; 10 h cultivation at 37° C.
  MIC: 12.5 µg/mL
Citrobacter diversus; 10 h cultivation at 37° C.
  MIC: 50 µg/mL
Moraxella catarrhalis; 10 h cultivation at 37° C.
  MIC: 12.5 µg/mL
Enterobacter cloacae; 10 h cultivation at 37° C.
  MIC: 50 µg/mL
E. coli DH5α
  MIC: 12.5 µg/mL
Serratia marcescens; 10 h cultivation at 37° C.
  MIC: 12.5 µg/mL
Aeromonas hydrophila; 10 h cultivation at 37° C.
  MIC: 12.5 µg/mL
E. coli BL21; E. coli BL21, 10 h cultivation at 37° C.
  MIC: 12.5 µg/mL

## PRT1496 (EISKCPQPCRNGGKCIGKSKCKCSKGYQGDLCS; listed as Homo sapiens)
Proteus mirabilis; Proteus mirabilis, 96-well plate, 5×10^5 CFU/mL, 37° C., 10 h
  MIC (μg/mL) P. mirabilis: 50 µg/mL
Pseudomonas aeruginosa; Pseudomonas aeruginosa, 96-well plate, 5×10^5 CFU/mL, 37° C., 10 h
  MIC (μg/mL) P. aeruginosa: 12.5 µg/mL
Klebsiella pneumonia; Klebsiella pneumonia, 96-well plate, 5×10^5 CFU/mL, 37° C., 10 h
  MIC (μg/mL) K. pneumonia: 12.5 µg/mL
Proteus vulgaris; Proteus vulgaris, 96-well plate, 5×10^5 CFU/mL, 37° C., 10 h
  MIC (μg/mL) P. vulgaris: 100 µg/mL
Citrobacter diversus; Citrobacter diversus, 96-well plate, 5×10^5 CFU/mL, 37° C., 10 h
  MIC (μg/mL) C. diversus: 50 µg/mL
Moraxella catarrhalis; Moraxella catarrhalis, 96-well plate, 5×10^5 CFU/mL, 37° C., 10 h
  MIC (μg/mL) M. catarrhalis: 12.5 µg/mL
Enterobacter cloacae; Enterobacter cloacae, 96-well plate, 5×10^5 CFU/mL, 37° C., 10 h
  MIC (μg/mL) E. cloacae: 100 µg/mL
E. coli DH5α
  MIC: 50 µg/mL
Serratia marcescens; Serratia marcescens, 96-well plate, 5×10^5 CFU/mL, 37° C., 10 h
  MIC (μg/mL) S. marcescens: 25 µg/mL
Aeromonas hydrophila; Aeromonas hydrophila, 96-well plate, 5×10^5 CFU/mL, 37° C., 10 h
  MIC (μg/mL) A. hydrophila: 50 µg/mL
E. coli BL21; E. coli BL21, 96-well plate, 5×10^5 CFU/mL, 37° C., 10 h
  MIC (μg/mL) E. coli BL21: 25 µg/mL

## PRT1417 (RACHPRCAEHGTCRDGKCECSPGWNGEHCT; listed as Homo sapiens)
Proteus mirabilis; Proteus mirabilis, 5×10^5 CFU/mL, 10 h cultivation at 37° C.
  MIC against P. mirabilis: 25 µg/mL
Pseudomonas aeruginosa; Pseudomonas aeruginosa, 5×10^5 CFU/mL, 10 h cultivation at 37° C.
  MIC against P. aeruginosa: 12.5 µg/mL
Klebsiella pneumonia; Klebsiella pneumonia, 5×10^5 CFU/mL, 10 h cultivation at 37° C.
  MIC against K. pneumonia: 50 µg/mL
Proteus vulgaris; Proteus vulgaris, 5×10^5 CFU/mL, 10 h cultivation at 37° C.
  MIC against P. vulgaris: 50 µg/mL
Citrobacter diversus; Citrobacter diversus, 5×10^5 CFU/mL, 10 h cultivation at 37° C.
  MIC against C. diversus: 25 µg/mL
Moraxella catarrhalis; Moraxella catarrhalis, 5×10^5 CFU/mL, 10 h cultivation at 37° C.
  MIC against M. catarrhalis: 12.5 µg/mL
Enterobacter cloacae; Enterobacter cloacae, 5×10^5 CFU/mL, 10 h cultivation at 37° C.
  MIC against E. cloacae: 12.5 µg/mL
E. coli DH5α
  MIC: 25 µg/mL
Serratia marcescens; Serratia marcescens, 5×10^5 CFU/mL, 10 h cultivation at 37° C.
  MIC against S. marcescens: 25 µg/mL
Aeromonas hydrophila; Aeromonas hydrophila, 5×10^5 CFU/mL, 10 h cultivation at 37° C.
  MIC against A. hydrophila: 50 µg/mL
E. coli BL21; E. coli BL21, 5×10^5 CFU/mL, 10 h cultivation at 37° C.
  MIC against E. coli BL21: 12.5 µg/mL

## PRT1191 (AEHACTSNPCANGGSCHEVPSGFECHCPSGWSGPTCA; listed as Homo sapiens)
Proteus mirabilis; [1]
  MIC P. mirabilis: 25 µg/mL
Pseudomonas aeruginosa; [1]
  MIC P. aeruginosa: 50 µg/mL
Klebsiella pneumonia; [1]
  MIC K. pneumonia: 25 µg/mL
Proteus vulgaris; [1]
  MIC P. vulgaris: 12.5 µg/mL
Citrobacter diversus; [1]
  MIC C. diversus: 12.5 µg/mL
Moraxella catarrhalis; [1]
  MIC M. catarrhalis: 50 µg/mL
Enterobacter cloacae; [1]
  MIC E. cloacae: 25 µg/mL
E. coli DH5α
  MIC: 12.5 µg/mL
Serratia marcescens; [1]
  MIC S. marcescens: 50 µg/mL
Aeromonas hydrophila; [1]
  MIC A. hydrophila: 25 µg/mL
E. coli BL21; [1]
  MIC E. coli BL21: 25 µg/mL

## PRT438 (DIDECALGRHTCHAGQDCDNTIGSYRCVVRCGSGFRRTSDGLSCQ; listed as Homo sapiens)
Proteus mirabilis; [1]
  MIC: 50 µg/mL
Pseudomonas aeruginosa; [1]
  MIC: 50 µg/mL
Klebsiella pneumonia; [1]
  MIC: 12.5 µg/mL
Proteus vulgaris; [1]
  MIC: 12.5 µg/mL
Citrobacter diversus; [1]
  MIC: 50 µg/mL
Moraxella catarrhalis; [1]
  MIC: 12.5 µg/mL
Enterobacter cloacae; [1]
  MIC: 50 µg/mL
E. coli DH5α
  MIC: 25 µg/mL
Serratia marcescens; [1]
  MIC: 50 µg/mL
Aeromonas hydrophila; [1]
  MIC: 12.5 µg/mL
E. coli BL21; E. coli BL21, 10 h cultivation at 37° C., 5×10^5 CFU/mL
  MIC: 12.5 µg/mL
